From patent publication US6673793B2, “Oxazinoquinolones useful for the treatment of viral infections” (Pharmacia & Upjohn Co., priority 2000, dated 2004)

Columns and labels:
[1] = target: T1, CMV polymerase (Human cytomegalovirus, UniProt P08546); experiment: HCMV polymerase assay, scintillation proximity assay (SPA), modified version; format: biochemical; details: modified HCMV polymerase SPA assay: compounds diluted in 100% DMSO, 4.5 mM DTT in polymerase buffer, different lot of CMV polymerase; read-out: CMV polymerase IC50
T1 construct: made in house; host or cells: recombinant baculovirus-infected SF-9 cells
T1 sequence (P08546 whole entry): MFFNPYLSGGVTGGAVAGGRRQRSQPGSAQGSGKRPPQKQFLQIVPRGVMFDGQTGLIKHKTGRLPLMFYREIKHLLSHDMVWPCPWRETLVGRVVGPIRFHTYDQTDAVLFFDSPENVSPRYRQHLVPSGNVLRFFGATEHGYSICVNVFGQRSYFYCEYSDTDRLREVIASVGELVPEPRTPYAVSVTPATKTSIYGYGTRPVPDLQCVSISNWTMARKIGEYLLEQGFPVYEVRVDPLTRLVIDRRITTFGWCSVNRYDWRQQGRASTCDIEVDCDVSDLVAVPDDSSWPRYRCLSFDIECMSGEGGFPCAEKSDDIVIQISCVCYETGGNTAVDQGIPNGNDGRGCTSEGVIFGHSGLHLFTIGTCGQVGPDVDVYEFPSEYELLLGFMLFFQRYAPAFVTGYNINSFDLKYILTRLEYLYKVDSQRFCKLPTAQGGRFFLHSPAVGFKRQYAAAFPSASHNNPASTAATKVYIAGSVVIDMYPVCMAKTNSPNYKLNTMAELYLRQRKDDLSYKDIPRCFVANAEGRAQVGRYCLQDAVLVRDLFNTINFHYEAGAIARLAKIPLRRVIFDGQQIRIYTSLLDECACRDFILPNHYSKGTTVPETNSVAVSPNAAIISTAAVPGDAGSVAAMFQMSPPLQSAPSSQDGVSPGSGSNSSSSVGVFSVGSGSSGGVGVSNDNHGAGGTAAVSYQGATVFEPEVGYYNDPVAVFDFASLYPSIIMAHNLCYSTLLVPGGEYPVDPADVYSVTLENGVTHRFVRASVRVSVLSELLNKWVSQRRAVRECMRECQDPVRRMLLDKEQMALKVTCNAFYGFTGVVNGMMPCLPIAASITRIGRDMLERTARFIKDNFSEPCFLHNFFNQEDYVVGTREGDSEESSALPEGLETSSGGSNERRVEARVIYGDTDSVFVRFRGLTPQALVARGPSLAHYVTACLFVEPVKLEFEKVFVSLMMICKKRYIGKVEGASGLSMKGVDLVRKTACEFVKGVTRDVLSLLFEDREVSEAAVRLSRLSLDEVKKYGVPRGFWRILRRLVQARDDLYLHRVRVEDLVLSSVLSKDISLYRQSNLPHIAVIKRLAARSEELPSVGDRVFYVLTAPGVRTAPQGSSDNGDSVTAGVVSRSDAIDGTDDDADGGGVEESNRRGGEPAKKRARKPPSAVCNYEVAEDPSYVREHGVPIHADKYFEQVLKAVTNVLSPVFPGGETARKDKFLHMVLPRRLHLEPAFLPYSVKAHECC
How it was run: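 Baculovirus/SF-9-expressed HCMV polymerase in SPA with 90 nM ^3H-dTTP and 6 nM biotinylated poly(dA)-oligo(dT), pH 7.5 HEPES/KCl/MgCl2/BSA, with or without 2 mM CHAPS. Runs 30 min at 25 C. or 37 C., EDTA stop, streptavidin-SPA beads counted; IC50 by linear regression. Modified version: compounds diluted in 100% DMSO rather than 50%, plus 4.5 mM DTT.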

| Compound | melting point | IC50 [1] |
| --- | --- | --- |
| COCOCc1ccccc1C1Cn2cc(C(=O)NCc3ccc(Cl)cc3)c(=O)c3cc(CN4CCOCC4)cc(c32)O1 (stereo not drawn) [Example 66, N-(4-Chlorobenzyl)-2-{2-[(methoxymethoxy)methyl]phenyl}-9-(morpholin-4-ylmethyl)-7-oxo-2,3-dihydro-7H-[1,4]oxazino[2,3,4-ij]quinoline-6-carboxamide] | 202.5 to 204.5 °C | 590 nM |
| COCOCc1ccc(C2Cn3cc(C(=O)NCc4ccc(Cl)cc4)c(=O)c4cc(CN5CCOCC5)cc(c43)O2)cc1 (stereo not drawn) [Example 67, N-(4-Chlorobenzyl)-2-{4-[(methoxymethoxy)methyl]phenyl}-9-(morpholin-4-ylmethyl)-7-oxo-2,3-dihydro-7H-[1,4]oxazino[2,3,4-ij]quinoline-6-carboxamide] | 236 to 239 °C | 1690 nM |
| O=C(NCc1ccc(Cl)cc1)c1cn2c3c(cc(CN4CCOCC4)cc3c1=O)OC(c1ccccc1CO)C2 (stereo not drawn) [Example 69, N-(4-Chlorobenzyl)-2-[2-(hydroxymethyl)phenyl]-9-(morpholin-4-ylmethyl)-7-oxo-2,3-dihydro-7H-[1,4]oxazino[2,3,4-ij]quinoline-6-carboxamide] | 218 to 223 °C (dec.) | 330 nM |
